From patent publication US6150376A, “Bi- and tri-cyclic aza compounds and their uses” (Georgetown University, priority 1998, dated 2000)

What was measured:
[1] = test system: serotonin and norepinephrine re-uptake; details: in words; cited from earlier work
[2] = Preskorn, 1994; cited from earlier work
[3] = target: T1, norepinephrine transporter (Rattus norvegicus, UniProt Q63380); test: [3H]NE uptake (re-uptake inhibition at the norepinephrine transporter); format: biochemical; details: Ki ± SE; Krebs-Ringer-HEPES buffer
T1 construct: from tissue
T1 sequence (Q63380 1-617): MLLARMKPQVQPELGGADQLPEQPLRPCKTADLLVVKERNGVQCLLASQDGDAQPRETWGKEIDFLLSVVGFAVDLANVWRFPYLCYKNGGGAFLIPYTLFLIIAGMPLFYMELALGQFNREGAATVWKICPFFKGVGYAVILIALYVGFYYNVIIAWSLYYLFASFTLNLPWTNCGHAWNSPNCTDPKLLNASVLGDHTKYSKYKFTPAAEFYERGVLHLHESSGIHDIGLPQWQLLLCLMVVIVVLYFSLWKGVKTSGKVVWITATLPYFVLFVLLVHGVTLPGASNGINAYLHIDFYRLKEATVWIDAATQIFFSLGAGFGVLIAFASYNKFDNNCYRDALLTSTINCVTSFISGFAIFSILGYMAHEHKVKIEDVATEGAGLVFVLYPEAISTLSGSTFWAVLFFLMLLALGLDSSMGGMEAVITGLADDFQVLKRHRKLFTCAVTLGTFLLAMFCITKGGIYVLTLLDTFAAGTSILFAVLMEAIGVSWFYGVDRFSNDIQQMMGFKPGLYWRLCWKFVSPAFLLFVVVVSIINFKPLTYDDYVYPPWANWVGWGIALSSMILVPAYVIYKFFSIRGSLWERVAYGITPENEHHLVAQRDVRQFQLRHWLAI
Experimental: (§1) Various isomeric forms of front-bridged Compounds 4, 5, 29, 30, 31, 40 and 50a and back-bridged Compounds 41, 42a, 42b, 49a and 50a were assayed for binding at the dopamine transporter and for inhibition of monamine re-uptake at the dopamine, serotonin and norepinephrine transporters. Mazindol binding were measured as previously described in Johnson et. al., 1992, Eur. J. Pharmacol., Mol. Pharmacol. Sect., 227:411-415. Reuptake inhibition was measured essentially as described in Yi et. al., 1991, Neuropharmacol. 29:475-486, except that an identical Krebs-Ringer-HEPES buffer was used for binding and all uptake assays (Slusher et al., 1997, Drug Alcohol Depend. 48:43-50).

serotonin transporter = target: T2, serotonin transporter (Rattus norvegicus, UniProt P31652); test: [3H]5-HT uptake (re-uptake inhibition at the serotonin transporter); format: biochemical; details: for Ki: Ki ± SE, Krebs-Ringer-HEPES buffer; for 5-HT/DA (ratio of uptake Ki): ratio of 5-HT uptake Ki to DA uptake Ki
T2 construct: from tissue
T2 sequence (P31652 whole entry): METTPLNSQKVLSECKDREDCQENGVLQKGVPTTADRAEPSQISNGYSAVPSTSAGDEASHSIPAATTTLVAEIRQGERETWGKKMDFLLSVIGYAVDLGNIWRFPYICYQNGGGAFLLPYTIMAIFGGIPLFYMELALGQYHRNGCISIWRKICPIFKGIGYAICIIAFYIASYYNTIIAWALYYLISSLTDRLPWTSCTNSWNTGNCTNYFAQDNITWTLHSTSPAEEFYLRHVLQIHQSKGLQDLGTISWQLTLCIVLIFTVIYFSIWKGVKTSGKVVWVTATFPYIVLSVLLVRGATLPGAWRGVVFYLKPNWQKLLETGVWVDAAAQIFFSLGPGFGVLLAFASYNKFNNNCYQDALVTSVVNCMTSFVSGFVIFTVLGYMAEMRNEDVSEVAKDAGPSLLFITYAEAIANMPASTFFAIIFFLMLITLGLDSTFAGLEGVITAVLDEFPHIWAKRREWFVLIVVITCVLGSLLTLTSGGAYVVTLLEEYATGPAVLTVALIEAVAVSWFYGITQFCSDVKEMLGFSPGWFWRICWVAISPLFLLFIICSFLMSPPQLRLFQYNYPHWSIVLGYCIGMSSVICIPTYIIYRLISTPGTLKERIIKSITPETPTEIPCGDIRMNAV
Experimental: as §1

dopamine transporter [4] = target: T3, dopamine transporter (Rattus norvegicus, UniProt P23977); test: [3H]Mazindol binding at the dopamine transporter; details: for Ki: Ki ± SE, Krebs-Ringer-HEPES buffer
T3 construct: from tissue
T3 sequence (P23977 whole entry): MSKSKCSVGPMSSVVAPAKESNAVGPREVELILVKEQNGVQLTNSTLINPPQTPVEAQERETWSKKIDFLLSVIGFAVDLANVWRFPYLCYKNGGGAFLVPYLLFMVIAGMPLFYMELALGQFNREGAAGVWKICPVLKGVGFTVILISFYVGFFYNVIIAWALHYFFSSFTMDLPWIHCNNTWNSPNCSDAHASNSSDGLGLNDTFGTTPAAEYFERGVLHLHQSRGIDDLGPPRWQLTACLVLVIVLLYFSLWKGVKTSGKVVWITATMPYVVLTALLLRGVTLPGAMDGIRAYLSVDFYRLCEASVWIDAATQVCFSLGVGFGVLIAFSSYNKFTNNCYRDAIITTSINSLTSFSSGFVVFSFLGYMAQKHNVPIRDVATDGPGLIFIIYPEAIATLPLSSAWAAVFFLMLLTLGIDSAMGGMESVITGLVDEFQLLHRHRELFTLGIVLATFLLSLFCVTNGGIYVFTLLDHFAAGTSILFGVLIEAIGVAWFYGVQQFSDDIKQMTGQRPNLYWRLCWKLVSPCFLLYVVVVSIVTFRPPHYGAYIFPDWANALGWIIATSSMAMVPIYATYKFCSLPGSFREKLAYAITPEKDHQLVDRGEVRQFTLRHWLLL
Experimental: as §1

dopamine transporter [5] = target: T3, dopamine transporter; test: [3H]DA uptake (re-uptake inhibition at the dopamine transporter); format: biochemical; details: for Ki: Ki ± SE, Krebs-Ringer-HEPES buffer; for higher activity / selectivity at the DAT over the 5-HTT: reuptake inhibition, DAT over 5-HTT
Experimental: as §1

Row | Molecule | selectivity for serotonin (dual serotonin and norepinephrine re-uptake inhibitor) [1] | time to full antidepressant effect [2] [days] | Ki [3] [µM] | Ki (serotonin transporter) [µM] | 5-HT/DA (ratio of uptake Ki) (serotonin transporter) | Ki (dopamine transporter [4]) [µM] | Ki (dopamine transporter [5]) [µM] | binding potency relative to (-)-40 (dopamine transporter [4]; in words) | higher activity / selectivity at the DAT over the 5-HTT (dopamine transporter [5]) [fold] | more active at the 5-HTT (5-HTT/NET selectivity) (serotonin transporter; reuptake inhibition, 5-HTT over NET) [fold]
1 | COc1ccc(C(CN(C)C)C2(O)CCCCC2)cc1 (stereo not drawn) [venlafaxine] | five-fold selectivity for serotonin | 4 to 7 | – | – | – | – | – | – | – | –
2 | Cc1ccc(C2CC3CCC4C2c2ccccc2CN34)cc1 (racemic) [Compound 45] | – | – | 0.00106 ± 3e-05 | 0.00177 | 0.074 | 0.00686 ± 0.00043 | 0.0239 ± 0.00133 | – | – | –
3 | C=C1CN2C3CCC2C1C(c1ccc(C)cc1)C3 (racemic) [Compound (±)-40] | – | – | 0.00269 ± 0.00012 | 0.00232 ± 0.00023 | 0.038 | 0.0617 ± 0.0085 | 0.0603 | only slightly decreased from that of the (-)-40 | – | –
4 | CCCC[C@@H]1CC[C@@H]2C3CN[C@H]2C[C@@]31c1ccc(C)cc1 (racemic) [Compound 42a, (1SR, 3SR, 4RS, 5SR, 7RS)-4-butyl-3-(4-methylphenyl)-10-azatricyclo[5.3.0.0^3,8]decane] | – | – | 0.00299 ± 0.00017 | 0.014 ± 0.00058 | 6.3 | 0.004 ± 7e-05 | 0.00223 ± 0.00012 | – | – | –
5 | O=C1CN2CCC(c3ccc(Cl)cc3)C1C2 (stereo not drawn) [Compound (+)-5] | – | – | 4.53 ± 0.41 | 25.1 ± 3.6 | 2.4 | 6.77 ± 0.5 | 10.5 ± 0.45 | – | 2.4 | –
6 | O=C1CN2CCC(c3ccc(Cl)cc3)C1C2 (stereo not drawn) [Compound (-)-4] | – | – | 70.9 ± 18 | 1.89 ± 0.44 | 0.11 | 10.5 ± 0.93 | 16.5 ± 0.97 | – | – | 38
7 | (1R, 2S, 4R, 7S)-(-)-10-methylene-2-(p-tolyl)-8-azatricyclo [5.2.0.0^4.8 ] decane [Compound (-)-40] | – | – | 0.00524 ± 7e-05 | 0.00176 | 0.029 | 0.0543 ± 0.0102 | 0.0603 ± 0.0004 | – | – | –
8 | (1SR, 2SR, 3RS, 5RS, 7SR)-2-butyl-methylphenyl)-10-azatricyclo [5.3.0.0^5,10 ]decane [Compound 50a] | – | – | 0.0517 ± 0.012 | 0.81 ± 0.0795 | 5.4 | 0.149 ± 0.00575 | 0.149 ± 0.00213 | – | – | –
9 | O=C1CN2CCC(c3ccc(Cl)cc3)C1C2 (stereo not drawn) [Compound (+)-4] | – | – | 38.3 ± 4.61 | 4.63 ± 0.76 | 0.16 | 18.5 ± 2.7 | 27.6 ± 1 | – | – | –
10 | O=C1CN2CCC(c3ccc(Cl)cc3)C1C2 (stereo not drawn) [Compound (-)-5] | – | – | 4.65 ± 0.44 | 11.9 ± 0.61 | 1.3 | 9.74 ± 0.16 | 9.05 ± 0.46 | – | 1.3 | –
